In US20080226565A1, “Anticariogenic Proteins & Peptides & Saccharides” (priority 2004, published 2008):

What was measured:
[1] = system: anaerobes isolated from the oral cavity; experiment: Susceptibility (MIC), agar dilution, anaerobes from the oral cavity; format: cell-based, anaerobic bacteria; settings: explored range 0.2 to 3.5 mg/ml
Description: (§1) The investigations included more than hundred strains isolated from the oral cavity: : anaerobes, microaerophilic bacteria, aerobes, Streptococcus spp. and yeast like fungi. The microorganisms were isolated from saliva, mucosal membrane, gingival pockets and caries decay. The susceptibility (MIC) of bacteria and yeastlike fungi were determined by means of plate dilution technique in agar.
(§2) The investigated samples were dissolved in sterile distilled water (immediately before the experiment) to obtain the following concentrations: 3.5, 1.7, 0.8, 0.4 and 0.2 mg/ml and were added into appropriate agar. The plates were inoculated using a Steers multipoint inoculator. Inoculum contained 10^6 CFU/spot. In each experimental series, the growth of strains on the culture medium without the compounds investigated was checked. The concentration at which no macroscopic growth of the microbes was observed on the medium was regarded as the lowest concentration, inhibiting the growth of microbes (MIC). The examinations of the susceptibility of microbes to the peptides were carried out twice.
(§3) Anaerobes. The susceptibility of bacteria was determined by means of the agar dilution methods with Brucella agar supplemented with 5% defibrinated sheep's blood, menadione and hemin. Sample solutions with concentrations from of 3.5-0.2 mg/ml were added into agar. The agar plate without investigated samples was included as a bacterial growth control. The inoculum of 10^6 CFU/ml was applied to the agar plates with Steers replicator. Incubation was performed for 48 hrs at 37° C. (310° K) in anaerobic jars containing a mixture of 10% CO2, 10% H2 and 80% N2, in the presence of palladium catalyst and indicator of anaerobiosis. Microaerophilic bacteria. The susceptibility of bacteria was determined by means of the agar dilution methods with Brucella agar supplemented with 5% sheep's blood. Samples solutions with concentrations from of 3.5- 0.2 mg/ml were added into agar. The agar plate without investigated samples was included as a bacterial growth control. The inoculum of 10^6 CFU/ml was applied to the agar plates with Steers replicator. The incubation was performed at 37° C. in anaerobic jars with Campy Pak (bio Merieux) for 48 hours. Streptococcus spp. The susceptibility of bacteria was determined by means of the agar dilution methods with Mueller-Hinton agar supplemented with 5% sheep's blood. Samples solutions with concentrations from of 3.5- 0.2 mg/ml were added into agar. The agar plate without investigated samples was included as a bacterial growth control. The inoculum of 10^6 CFU/ml was applied to the agar plates with Steers replicator. Incubation was performed for 24 hrs at 37° C. (310° K) in anaerobic jars containing a mixture of 10% CO2 and 90% N2. Aerobes. The susceptibility to investigated samples was determined by means of the plate dilution technique in Mueller-Hinton agar. Samples solutions with concentrations from of 3.5- 0.2 mg/ml were added into agar. The agar plate without investigated samples was included as a bacterial growth control. The inoculum of 10^6 CFU/ml was applied to the agar plates with Steers replicator. Plates were incubated for 24 hrs in 37° C. under aerobic conditions. Yeast like fungi. The susceptibility of fungi to investigated samples was determined by means of the plate dilution technique in Sabouraud's agar. Samples solutions with concentrations from of 3.5- 0.2 mg/ml were added into agar. […]

[2] = system: aerobes isolated from the oral cavity; experiment: Susceptibility (MIC), agar dilution, aerobes from the oral cavity; format: cell-based, aerobic bacteria; settings: explored range 0.2 to 3.5 mg/ml
Description: as §1, §2
as §3, with “control. […]” for “control. The inoculum of 10^6 CFU/ml was applied to the agar plates with Steers replicator. Incubation was performed for 24 hrs at 37° C. (310° K) in anaerobic jars containing a mixture of 10% CO2 and 90% N2. Aerobes.”, “agar. […]” for “agar. Samples solutions with concentrations from of 3.5- 0.2 mg/ml were added into agar. The agar plate without investigated samples was included as a bacterial growth control. The inoculum of 10^6 CFU/ml was applied to the agar plates with Steers replicator. Plates were incubated for 24 hrs in 37° C. under aerobic conditions. Yeast like fungi.”, “agar.” for “agar. Samples solutions with concentrations from of 3.5- 0.2 mg/ml were added into agar.”

Solubility in water = format: physicochemical

Substance: 3-hydroxyphthalated e-polylysine [Product 27]
- activity against anaerobes [1]: less effective
- activity against aerobes [2]: not active
- pH at which soluble in water (Solubility in water): above 9
